Patent US20220381783A1, “BIOMARKER” (Oxford University Innovation Limited, priority 2019, published 2022)

Assays:
[1] = tested on: HEK293 cells; experiment: Puromycin dose required to kill wild-type cells; type: cell-based, Human
Description: (§1) To generate CRISPR-Cas9 TEX264 knockout cells, two plasmids —a CRISPR/Cas9 KO plasmid containing guide RNA targeting TEX264 (sc-417333), and a homology directed repair plasmid containing a puromycin resistance cassette (sc-417333-HDR)—were purchased from Santa Cruz. 2.5 μg of each plasmid was transfected into early-passage HEK293, HeLa, and U2OS cells using Fugene HD (Promega). After 72 hours, media supplemented with puromycin was added to the cells. The puromycin dose required to kill wild-type cells was determined to be: 1.25 μg/ml for HEK293 cells, 0.6 μg/ml for HeLa cells, and 1 μg/ml for U2OS cells. After 72 hours, the puromycin-containing media was removed and cells were sorted using a cell sorter into single-cell populations on a 96-well plate. TEX264 expression was analysed by immunoblotting. Multiple clones of each cell line showing loss of all detectable TEX264 were selected for subsequent analysis.

[2] = tested on: HeLa cells; experiment: Puromycin dose required to kill wild-type cells; type: cell-based, Human
Description: as §1

[3] = tested on: U2OS cells; experiment: Puromycin dose required to kill wild-type cells; type: cell-based, Human
Description: as §1

[4] = molecular target: T1, TOP1cc (Homo sapiens, UniProt P11387); experiment: RADAR assay of TOP1cc accumulation; type: cell-based; settings: HEK293 cells, 1 μM CPT for 1 hour, positive control
T1 construct: endogenous in cells; host or cells: HEK293
T1 sequence (P11387 2-765 limits assumed): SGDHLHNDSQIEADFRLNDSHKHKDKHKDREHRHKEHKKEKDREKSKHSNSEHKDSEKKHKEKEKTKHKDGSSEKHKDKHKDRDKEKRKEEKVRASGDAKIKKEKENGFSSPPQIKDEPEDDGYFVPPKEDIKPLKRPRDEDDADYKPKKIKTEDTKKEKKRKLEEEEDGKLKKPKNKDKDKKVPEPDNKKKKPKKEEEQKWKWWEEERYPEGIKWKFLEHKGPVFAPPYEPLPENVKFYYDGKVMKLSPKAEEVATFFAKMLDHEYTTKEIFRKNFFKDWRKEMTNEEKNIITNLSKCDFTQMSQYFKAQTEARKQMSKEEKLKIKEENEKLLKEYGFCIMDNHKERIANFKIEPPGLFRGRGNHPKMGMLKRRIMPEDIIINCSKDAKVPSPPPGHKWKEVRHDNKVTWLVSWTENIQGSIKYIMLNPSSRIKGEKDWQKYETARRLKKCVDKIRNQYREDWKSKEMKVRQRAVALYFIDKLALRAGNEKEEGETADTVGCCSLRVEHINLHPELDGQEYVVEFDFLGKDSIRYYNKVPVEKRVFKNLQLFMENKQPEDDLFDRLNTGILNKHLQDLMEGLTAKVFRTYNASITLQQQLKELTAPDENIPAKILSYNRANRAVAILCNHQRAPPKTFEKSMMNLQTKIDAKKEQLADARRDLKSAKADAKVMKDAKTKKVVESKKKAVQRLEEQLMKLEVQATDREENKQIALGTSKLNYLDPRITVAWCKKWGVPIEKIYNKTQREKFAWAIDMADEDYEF
Description: Treatment with 1 μM CPT for 1 hour was used as a positive control for TOP1cc induction. Double-stranded (ds)DNA is used as a loading control. […] FIG. 1C, Quantification of Figure 1A (error bars represent mean ±SEM; n=3; ***P<0.001, **P<0.01; Student's t-test).
Cells were grown to ˜70% confluency then lysed in M buffer (MB), containing 6 M guanidine thiocyanate, 10 mM Tris—HCl (pH 6.8), 20 mM EDTA, 4% Triton X-100, 1% N-lauroylsarcosine and 1% dithiothreitol. DNA was precipitated by adding 100% ethanol, then washed three times in wash buffer (20 mM Tris—HC1 pH 7.4, 150 mM NaCl and 50% ethanol), and solubilized in 8 mM NaOH. […] For TOP1ccs, samples were digested with Benzonase for 30 minutes at 37° C. and analysed by slot blot analysis on a Nitrocellulose membrane.
By lysing cells in chaotropic salts (6M guanidium isothiocyanate), detergents (4% Triton X-100 and 1% N-lauroylsarcosine), and a reducing agent (1% DTT), all molecular interactions, other than covalent interactions, are disrupted.

[5] = tested on: SUMOylated TOP1; experiment: Denaturing immunoprecipitation of YFP-TOP1, SUMO immunoblot; type: cell-based, human; settings: HEK293 cells, short treatment with a low dose (25 nM, 1 hour)
Description: FIG. 9A, Immunoblot analysis of SUMO1 & SUMO2/3 after denaturing immunoprecipitation of YFP-TOP1 from HEK293 cells treated or not with CPT (25 nM) for 1 or 24 hours. […] Asterisks indicate SUMOylated TOP1.
(§2) Cells were lysed in IP lysis buffer (50 mM Tris, pH 7.4, 150 mM NaCl, 1 mM EDTA, 0.5% Triton X-100) or IP denaturing buffer (i.e. IP lysis buffer containing 1% SDS) supplemented with protease and phosphatase inhibitors and incubated on ice for 10 min. Denaturing IPs were quenched with Triton X-100 (to a final concentration of 1%). Chromatin was pelleted by centrifugation for 5 min at 1,000×g and then digested with Benzonase at room temperature in Benzonase buffer (2 mM MgCl2, 50 mM Tris, pH 7.4, 150 mM NaCl). Lysates were incubated with anti-FLAG M2 agarose (Sigma-Aldrich), Strep-Tactin Sepharose (IBA), or GFP-trap agarose (Chromotek) for 1-2 h on a rotator at 4° C., washed three times with IP wash buffer (150 mM NaCl, 50 mM Tris-HC1; 0.5 mM EDTA), and resuspended in 2× Laemmli buffer.

[6] = molecular target: T2, interaction between TEX264 and TOP1 (Homo sapiens, UniProt P11387); experiment: Co-immunoprecipitation of TEX264-FLAG with TOP1; type: cell-based; settings: HEK293 cells
T2 construct: FLAG immunoprecipitates prepared from HEK293 cells transiently expressing TEX264WT-FLAG cDNA or EV; expressed in transfected cells; host or cells: HEK293, transiently transfected with pCDNA3.1 TEX264-FLAG
T2 sequence (P11387 2-765 limits assumed): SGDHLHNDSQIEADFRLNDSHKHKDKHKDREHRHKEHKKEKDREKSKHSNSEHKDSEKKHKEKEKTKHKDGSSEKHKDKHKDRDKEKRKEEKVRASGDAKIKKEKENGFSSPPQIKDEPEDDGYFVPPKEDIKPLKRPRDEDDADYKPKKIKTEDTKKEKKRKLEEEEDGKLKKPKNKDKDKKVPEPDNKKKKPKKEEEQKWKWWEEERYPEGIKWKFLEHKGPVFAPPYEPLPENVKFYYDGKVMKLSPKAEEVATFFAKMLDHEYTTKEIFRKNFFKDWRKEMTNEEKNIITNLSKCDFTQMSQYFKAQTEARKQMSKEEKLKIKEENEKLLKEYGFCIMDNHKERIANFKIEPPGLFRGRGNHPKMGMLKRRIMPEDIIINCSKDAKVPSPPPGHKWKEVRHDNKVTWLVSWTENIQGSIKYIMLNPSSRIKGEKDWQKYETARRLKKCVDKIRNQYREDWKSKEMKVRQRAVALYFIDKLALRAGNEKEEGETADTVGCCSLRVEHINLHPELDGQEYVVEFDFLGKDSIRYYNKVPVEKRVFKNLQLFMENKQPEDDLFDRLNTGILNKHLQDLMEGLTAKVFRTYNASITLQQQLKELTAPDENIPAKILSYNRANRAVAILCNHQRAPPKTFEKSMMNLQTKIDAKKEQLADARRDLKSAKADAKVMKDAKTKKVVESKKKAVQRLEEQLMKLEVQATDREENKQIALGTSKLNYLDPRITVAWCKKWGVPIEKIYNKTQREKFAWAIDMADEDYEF
Description: FIG. 2D, FLAG immunoprecipitates prepared from HEK293 cells transiently expressing TEX264WT-FLAG cDNA or EV, treated with CPT (25 nM) or DMSO for 1 hour. FIG. 2E, Immunoblots of anti-Strep-tag immunoprecipitates prepared from wild-type (WT) or ΔTEX264 HEK293 cells expressing p97-Strep-Myc.
FIG. 7G, Immunoblot analysis of TEX264-FLAG immunoprecipitates prepared from HEK293 cells treated with the indicated doses of CPT for 1 hour.
as §2

[7] = tested on: metastatic colorectal cancer; settings: patients with metastatic colorectal cancer; cited from earlier work
[8] = molecular target: T3, TOP1 cleavage complexes purified from HEK293 cells by CsCl-gradient fractionation
T3 chain: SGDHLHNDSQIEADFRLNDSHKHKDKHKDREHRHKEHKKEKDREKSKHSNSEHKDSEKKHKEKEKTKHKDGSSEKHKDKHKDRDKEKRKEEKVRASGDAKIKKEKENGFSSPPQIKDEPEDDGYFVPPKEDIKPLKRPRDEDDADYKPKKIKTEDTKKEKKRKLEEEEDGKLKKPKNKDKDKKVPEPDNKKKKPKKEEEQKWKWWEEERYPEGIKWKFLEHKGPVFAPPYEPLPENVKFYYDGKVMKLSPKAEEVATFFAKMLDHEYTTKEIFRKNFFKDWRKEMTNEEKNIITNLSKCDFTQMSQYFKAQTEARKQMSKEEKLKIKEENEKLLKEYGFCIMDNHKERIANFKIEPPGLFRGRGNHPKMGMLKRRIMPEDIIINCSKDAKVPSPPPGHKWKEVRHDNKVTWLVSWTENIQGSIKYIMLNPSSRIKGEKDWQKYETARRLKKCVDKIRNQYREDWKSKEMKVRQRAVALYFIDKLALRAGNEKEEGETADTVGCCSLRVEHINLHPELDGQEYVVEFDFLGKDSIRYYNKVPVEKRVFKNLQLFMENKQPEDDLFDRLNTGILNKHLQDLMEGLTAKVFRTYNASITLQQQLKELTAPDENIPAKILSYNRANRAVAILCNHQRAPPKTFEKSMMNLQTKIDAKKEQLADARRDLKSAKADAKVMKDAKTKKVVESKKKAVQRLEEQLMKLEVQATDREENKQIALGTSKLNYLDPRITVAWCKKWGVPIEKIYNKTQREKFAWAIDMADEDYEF

[9] = molecular target: T4, endogenous p97 of HEK293 cells (human, UniProt P55072 2-806); experiment: anti-Strep-tag immunoprecipitation from HEK293 cells, immunoblot (FIG. 10c)
T4 construct: Detected in immunoprecipitates by mass spectrometry or immunoblot; also called AAA ATPase p97
T4 sequence (P55072 2-806 limits assumed): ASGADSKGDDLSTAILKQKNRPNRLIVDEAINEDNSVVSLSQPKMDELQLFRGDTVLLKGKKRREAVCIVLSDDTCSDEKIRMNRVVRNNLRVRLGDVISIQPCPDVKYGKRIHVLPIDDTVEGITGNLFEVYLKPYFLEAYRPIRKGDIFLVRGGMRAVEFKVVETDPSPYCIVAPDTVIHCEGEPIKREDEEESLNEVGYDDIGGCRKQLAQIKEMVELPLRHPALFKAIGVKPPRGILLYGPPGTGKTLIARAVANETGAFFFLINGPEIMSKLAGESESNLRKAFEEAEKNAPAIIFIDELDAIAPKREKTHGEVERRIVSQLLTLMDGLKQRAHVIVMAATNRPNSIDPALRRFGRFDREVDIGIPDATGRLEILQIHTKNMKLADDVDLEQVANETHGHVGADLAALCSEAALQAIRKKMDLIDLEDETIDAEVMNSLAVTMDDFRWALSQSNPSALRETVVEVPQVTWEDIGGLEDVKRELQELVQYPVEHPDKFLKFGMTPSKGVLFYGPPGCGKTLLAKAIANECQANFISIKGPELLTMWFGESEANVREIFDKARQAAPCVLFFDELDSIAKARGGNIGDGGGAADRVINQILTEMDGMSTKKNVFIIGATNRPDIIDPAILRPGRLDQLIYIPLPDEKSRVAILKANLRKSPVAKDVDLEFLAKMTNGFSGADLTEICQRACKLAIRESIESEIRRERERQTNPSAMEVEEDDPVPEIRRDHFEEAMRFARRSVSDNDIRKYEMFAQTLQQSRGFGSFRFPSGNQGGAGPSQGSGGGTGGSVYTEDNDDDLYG
Description: FIG. 10A, Colony forming assay to assess the survival of HeLa cells transfected with the indicated siRNAs following a 24 hour treatment with the indicated doses of CPT. FIG. 10B, Immunoblots to confirm depletion efficacy in A. FIG. 10C, Analysis of anti-Strep-tag immunoprecipitates prepared from HEK293 cells expressing SPRTN-SSH, transfected with the indicated siRNA. FIG. 10D, Total DNA-protein crosslinks (DPCs) isolated by RADAR from HEK293 cells treated with the indicated siRNAs. DPCs were resolved by SDS-PAGE and visualised by silver staining. FIG. 10E, Quantification of FIG. 10D (error bars represent mean ±SD; n=2; **P<0.01; ns, not significant; Student's t-test). FIG. 10F, In vitro TOP1cc repair assay. TOP1ccs were purified by CsCl-gradient centrifugation from HEK293 cells, incubated with the indicated purified proteins (100 nM/reaction), slot-blotted onto a nitrocellulose membrane and probed with a […] -specific antibody.
To explore how TEX264 regulates SPRTN-dependent TOP1cc processing, SPRTN-SSH was immunoprecipitated from wild-type and TEX264-depleted HEK293 cell extracts. […] As p97 exists in hexameric complexes, it can bind multiple cofactors at a time (Buchberger et al., 2015; Hänzelmann et al., 2011). […]

COc1ccc(C[C@H](N)C(=O)N[C@H]2[C@@H](O)[C@H](n3cnc4c(N(C)C)ncnc43)O[C@@H]2CO)cc1 [puromycin]
puromycin dose required to kill wild-type cells [1]: 1.25 µg/mL | puromycin dose required to kill wild-type cells [2]: 0.6 µg/mL | puromycin dose required to kill wild-type cells [3]: 1 µg/mL

CC[C@@]1(O)C(=O)OCc2c1cc1n(c2=O)Cc2cc3ccccc3nc2-1 [CPT, Camptothecin]
TOP1cc accumulation [4]: substantial TOP1cc accumulation | SUMOylated TOP1, particularly SUMO1 [5]: moderate increases | co-immunoprecipitation of TOP1 with p97 or TEX264 ([6]; 1 μM CPT): did not co-immunoprecipitate | interaction between TEX264 and TOP1 ([6]; CPT 25 nM for 1 hour): increased markedly

O=c1[nH]cc(F)c(=O)[nH]1 [FU, fluorouracil]
patient response rates [7]: 10-15%

B1: SPRTN-SSH expressed in HEK293 cells (enzyme)
chain: MDDDLMLALRLQEEWNLQEAERDHAQESLSLVDASWELVDPTPDLQALFVQFNDQFFWGQLEAVEVKWSVRMTLCAGICSYEGKGGMCSIRLSEPLLKLRPRKDLVETLLHEMIHAYLFVTNNDKDREGHGPEFCKHMHRINSLTGANITVYHTFHDEVDEYRRHWWRCNGPCQHRPPYYGYVKRATNREPSAHDYWWAEHQKTCGGTYIKIKEPENYSKKGKGKAKLGKEPVLAAENKDKPNRGEAQLVIPFSGKGYVLGETSNLPSPGKLITSHAINKTQDLLNQNHSANAVRPNSKIKVKFEQNGSSKNSHLVSPAVSNSHQNVLSNYFPRVSFANQKAFRGVNGSPRISVTVGNIPKNSVSSSSQRRVSSSKISLRNSSKVTESASVMPSQDVSGSEDTFPNKRPRLEDKTVFDNFFIKKEQIKSSGNDPKYSTTTAQNSSSSSSQSKMVNCPVCQNEVLESQINEHLDWCLEGDSIKVKSEESL
notes: also called SPRTN-wt-cSSH; not shown: C-terminal SSH tag (pulled down by anti-Strep-tag)
in vitro TOP1cc repair assay (slot blot with TOP1cc-specific antibody), SPRTN alone [8]: SPRTN alone could process only a small proportion of TOP1ccs | in vitro TOP1cc repair assay (slot blot with TOP1cc-specific antibody), TOP1ccs pre-incubated with p97 and TEX264 [8]: this activity was enhanced when TOP1ccs were pre-incubated with p97 and TEX264 prior to the addition of SPRTN | binding result [9]: binds
